Measurements as given in patent US20250145585A1, “HETEROCYCLIC INHIBITORS OF IGF-1R FOR TREATMENT OF DISEASE” (HORIZON THERAPEUTICS IRELAND DAC, priority 2023, published 2025).
pIC50: −log10 of the molar value.

Key:
IGF-1R [1] = biological target: T1, IGF-1R (Homo sapiens, UniProt P08069); assay: Example B-2: IGF-1R Assay (PathHunter cell lines, EC80 agonist challenge, chemiluminescent detection); format: cell-based; settings: PathHunter cells, compound 60 minutes at 37° C., EC80 agonist 3 hours; read-out: IC50, Biological Activity against IGF-1R (Table B2)
T1 construct: expressed in transfected cells
Method in brief: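 PathHunter cells were pre-incubated with compound for 60 min at 37° C (1% vehicle), then challenged with EC80 agonist for 3 h at room temperature. Chemiluminescent detection after 1 h gave % inhibition relative to EC80 and vehicle controls, from which IC50 was derived.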

IGF-1R [2] = biological target: T1, IGF-1R; assay: Example B-1: IGF-1R Assay (PC3 cells stimulated with IGF1, AlphaLISA on cell lysates); format: cell-based; settings: compound two hours, IGF1 200 ng/mL for 30 min, read-out: IC50, Biological Activity against IGF-1R (Table B1)
Method in brief: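 PC3 cells serum-starved 2 h, treated 2 h with 3-fold serially diluted compound, then stimulated 30 min with IGF1 (200 ng/mL final). Lysates analysed by AlphaLISA; % inhibition calculated relative to vehicle and EC80 controls, IC50 derived.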

T1 sequence (P08069 31-1367): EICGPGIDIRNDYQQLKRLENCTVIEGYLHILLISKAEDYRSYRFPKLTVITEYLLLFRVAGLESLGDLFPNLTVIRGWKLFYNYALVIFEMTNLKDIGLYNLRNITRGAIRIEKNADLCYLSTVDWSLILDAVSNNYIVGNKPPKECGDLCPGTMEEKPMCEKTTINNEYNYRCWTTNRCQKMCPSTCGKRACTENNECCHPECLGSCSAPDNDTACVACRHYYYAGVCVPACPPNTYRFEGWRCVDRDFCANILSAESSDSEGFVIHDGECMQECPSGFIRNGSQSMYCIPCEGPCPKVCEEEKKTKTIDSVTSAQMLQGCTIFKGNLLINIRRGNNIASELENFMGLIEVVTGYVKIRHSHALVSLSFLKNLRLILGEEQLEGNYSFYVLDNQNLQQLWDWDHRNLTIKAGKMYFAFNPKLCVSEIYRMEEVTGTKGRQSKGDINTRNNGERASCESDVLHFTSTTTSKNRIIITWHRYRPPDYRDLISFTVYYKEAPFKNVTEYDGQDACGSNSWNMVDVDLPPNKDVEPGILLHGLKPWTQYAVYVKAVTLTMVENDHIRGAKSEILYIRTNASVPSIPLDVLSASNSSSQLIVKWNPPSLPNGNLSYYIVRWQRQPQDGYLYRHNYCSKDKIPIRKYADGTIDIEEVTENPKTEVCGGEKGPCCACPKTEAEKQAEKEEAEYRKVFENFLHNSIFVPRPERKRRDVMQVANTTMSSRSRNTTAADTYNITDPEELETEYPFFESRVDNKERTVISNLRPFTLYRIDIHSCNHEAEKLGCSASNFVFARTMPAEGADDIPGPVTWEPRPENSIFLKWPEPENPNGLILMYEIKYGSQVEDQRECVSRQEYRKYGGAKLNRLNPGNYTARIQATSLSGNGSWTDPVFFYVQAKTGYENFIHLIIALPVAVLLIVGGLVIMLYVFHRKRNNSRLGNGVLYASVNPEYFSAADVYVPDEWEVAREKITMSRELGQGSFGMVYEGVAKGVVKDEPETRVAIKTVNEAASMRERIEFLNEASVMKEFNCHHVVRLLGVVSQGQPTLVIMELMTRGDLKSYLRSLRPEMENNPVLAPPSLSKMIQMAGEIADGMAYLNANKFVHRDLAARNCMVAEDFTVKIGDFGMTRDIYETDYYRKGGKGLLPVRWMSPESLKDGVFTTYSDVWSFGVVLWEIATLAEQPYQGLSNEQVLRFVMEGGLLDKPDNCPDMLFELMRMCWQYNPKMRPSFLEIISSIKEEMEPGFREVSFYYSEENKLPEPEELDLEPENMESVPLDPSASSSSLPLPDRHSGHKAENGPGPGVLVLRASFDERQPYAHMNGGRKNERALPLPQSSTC

Row | pIC50 (IGF-1R [1]) | pIC50 (IGF-1R [2]) | Structure (SMILES)
1 | ≥ 6.30 | ≥ 6.30 | CC(C)Nc1cc(CN2C(=O)N(c3ccc(C4(C#N)CCC4)cc3)C(=O)C2(C)C)ccn1 [Compound 107, 1-(4-(3-((2-(isopropylamino)pyridin-4-yl)methyl)-4,4-dimethyl-2,5-dioxoimidazolidin-1-yl)phenyl)cyclobutane-1-carbonitrile]
2 | ≥ 6.30 | ≥ 6.30 | CC(C)(C#N)Nc1cc(CN2C(=O)N(c3ccc(C4(C(F)(F)F)CC4)cc3)C(=O)C2(C)C)ccn1 [Compound 109, 2-((4-((5,5-dimethyl-2,4-dioxo-3-(4-(1-(trifluoromethyl)cyclopropyl)phenyl)imidazolidin-1-yl)methyl)pyridin-2-yl)amino)-2-methylpropanenitrile]
3 | 5.00 to 5.70 | 5.00 to 5.70 | CC(C)Nc1cc(CN2C(=O)N(c3ccc4c(c3)N(C)C(=O)C4(C)C)C(=O)C2(C)C)ccn1 [Compound 111, 1-((2-(isopropylamino)pyridin-4-yl)methyl)-5,5-dimethyl-3-(1,3,3-trimethyl-2-oxoindolin-6-yl)imidazolidine-2,4-dione]
4 | ≥ 6.30 | ≥ 6.30 | COC[C@@H](C)Nc1cc(CN2C(=O)N(c3ccc(C4(C(F)(F)F)CC4)cc3)C(=O)C2(C)C)ccn1 [Compound 114, (R)-1-((2-((1-methoxypropan-2-yl)amino)pyridin-4-yl)methyl)-5,5-dimethyl-3-(4-(1-(trifluoromethyl)cyclopropyl)phenyl)imidazolidine-2,4-dione]
5 | ≥ 6.30 | < 5.00 | Cc1c(CN2C(=O)N(c3ccc(C4(C(F)(F)F)CC4)cc3)C(=O)C2(C)C)ccnc1NC(C)C [Compound 122, 1-((2-(isopropylamino)-3-methylpyridin-4-yl)methyl)-5,5-dimethyl-3-(4-(1-(trifluoromethyl)cyclopropyl)phenyl)imidazolidine-2,4-dione]
6 | 5.70 to 6.30 | 5.70 to 6.30 | CC(C)Nc1cc(CN2C(=O)N(c3ccc(C4(C#N)CC(F)(F)C4)cc3)C(=O)C2(C)C)ccn1 [Compound 123, 3,3-difluoro-1-(4-(3-((2-(isopropylamino)pyridin-4-yl)methyl)-4,4-dimethyl-2,5-dioxoimidazolidin-1-yl)phenyl)cyclobutane-1-carbonitrile]
7 | ≥ 6.30 | ≥ 6.30 | CC(C)Nc1cc(CN2C(=O)N(c3ccc(C4(C)CC4(F)F)cc3)C(=O)C2(C)C)ccn1 (centres unmarked) [Compound 124, 3-(4-(2,2-difluoro-1-methylcyclopropyl)phenyl)-1-((2-(isopropylamino)pyridin-4-yl)methyl)-5,5-dimethylimidazolidine-2,4-dione]
8 | ≥ 6.30 | ≥ 6.30 | CC(C)Nc1cc(CN2C(=O)N(c3ccc(C(C)(C)C#N)cc3)C(=O)C2(C)C)ccn1 [Compound 125, 2-(4-(3-((2-(isopropylamino)pyridin-4-yl)methyl)-4,4-dimethyl-2,5-dioxoimidazolidin-1-yl)phenyl)-2-methylpropanenitrile]
9 | 5.70 to 6.30 | 5.70 to 6.30 | CC(C)Nc1cc(CN2C(=O)N(c3ccc(C4(C#N)CCCCC4)cc3)C(=O)C2(C)C)ccn1 [Compound 126, 1-(4-(3-((2-(isopropylamino)pyridin-4-yl)methyl)-4,4-dimethyl-2,5-dioxoimidazolidin-1-yl)phenyl)cyclohexane-1-carbonitrile]
10 | ≥ 6.30 | ≥ 6.30 | CC1(C)C(=O)N(c2ccc(C3(C#N)CCC3)cc2)C(=O)N1Cc1ccnc(NC2CCOCC2)c1 [Compound 129, 1-(4-(4,4-dimethyl-2,5-dioxo-3-((2-((tetrahydro-2H-pyran-4-yl)amino)pyridin-4-yl)methyl)imidazolidin-1-yl)phenyl)cyclobutane-1-carbonitrile]
11 | ≥ 6.30 | ≥ 6.30 | CC(C)Nc1cc(CN2C(=O)N(c3ccc(C4(C#N)CCCC4)cc3)C(=O)C2(C)C)ccn1 [Compound 131, 1-(4-(3-((2-(isopropylamino)pyridin-4-yl)methyl)-4,4-dimethyl-2,5-dioxoimidazolidin-1-yl)phenyl)cyclopentane-1-carbonitrile]

Continued, molecule first:

Row | Structure (SMILES) | pIC50 (IGF-1R [1]) | pIC50 (IGF-1R [2])
12 | CC1(C)C(=O)N(c2ccc(C3(C(F)(F)F)CC3)cc2)C(=O)N1Cc1ccnc(NC2CCOCC2)c1 [Compound 106, 5,5-dimethyl-1-((2-((tetrahydro-2H-pyran-4-yl)amino)pyridin-4-yl)methyl)-3-(4-(1-(trifluoromethyl)cyclopropyl)phenyl) imidazolidine-2,4-dione] | ≥ 6.30 | ≥ 6.30
13 | CN1C(=O)C(C)(C)c2ccc(N3C(=O)N(Cc4ccnc(N)c4)C(C)(C)C3=O)cc21 [Compound 110, 1-((2-aminopyridin-4-yl)methyl)-5,5-dimethyl-3-(1,3,3-trimethyl-2-oxoindolin-6-yl)imidazolidine-2,4-dione] | 5.00 to 5.70 | 5.70 to 6.30
14 | CC1(C)C(=O)N(c2ccc(C3(C(F)(F)F)CC3)cc2)C(=O)N1Cc1ccnc(N[C@@H]2CCOC2)c1 [Compound 118, (R)-5,5-dimethyl-1-((2-((tetrahydrofuran-3-yl)amino)pyridin-4-yl)methyl)-3-(4-(1-(trifluoromethyl)cyclopropyl)phenyl) imidazolidine-2,4-dione] | ≥ 6.30 | ≥ 6.30
15 | CC1(C)C(=O)N(c2ccc(C3(C(F)(F)F)CC3)cc2)C(=O)N1Cc1ccnc(N[C@H]2CCOC2)c1 [Compound 119, (S)-5,5-dimethyl-1-((2-((tetrahydrofuran-3-yl)amino)pyridin-4-yl)methyl)-3-(4-(1-(trifluoromethyl)cyclopropyl)phenyl) imidazolidine-2,4-dione] | ≥ 6.30 | ≥ 6.30
16 | CC1(C)C(=O)N(c2ccc(C3(C(F)(F)F)CC3)cc2)C(=O)N1Cc1ccnc(NC2CC3(COC3)C2)c1 [Compound 120, 1-((2-((2-oxaspiro[3.3]heptan-6-yl)amino)pyridin-4-yl)methyl)-5,5-dimethyl-3-(4-(1-(trifluoromethyl)cyclopropyl)phenyl) imidazolidine-2,4-dione] | ≥ 6.30 | ≥ 6.30
17 | CC1(C)C(=O)N(c2ccc(C3(C(F)(F)F)CC3)cc2)C(=O)N1Cc1ccnc(N[C@H]2CCCOC2)c1 [Compound 121, (S)-5,5-dimethyl-1-((2-((tetrahydro-2H-pyran-3-yl)amino)pyridin-4-yl)methyl)-3-(4-(1-(trifluoromethyl)cyclopropyl)phenyl) imidazolidine-2,4-dione] | ≥ 6.30 | ≥ 6.30
18 | CC1CC(Nc2cc(CN3C(=O)N(c4ccc(C5(C(F)(F)F)CC5)cc4)C(=O)C3(C)C)ccn2)CCO1 (centres unmarked) [Compound 127, 5,5-dimethyl-1-((2-((2-methyltetrahydro-2H-pyran-4-yl)amino)pyridin-4-yl)methyl)-3-(4-(1-(trifluoromethyl)cyclopropyl)phenyl) imidazolidine-2,4-dione] | ≥ 6.30 | ≥ 6.30
19 | CC1COCCC1Nc1cc(CN2C(=O)N(c3ccc(C4(C(F)(F)F)CC4)cc3)C(=O)C2(C)C)ccn1 (centres unmarked) [Compound 128, 5,5-dimethyl-1-((2-((3-methyltetrahydro-2H-pyran-4-yl)amino)pyridin-4-yl)methyl)-3-(4-(1-(trifluoromethyl)cyclopropyl)phenyl) imidazolidine-2,4-dione] | ≥ 6.30 | ≥ 6.30
20 | CC1(C)C(=O)N(c2ccc(C3(C(F)(F)F)CCC3)cc2)C(=O)N1Cc1ccnc(NC2CCOCC2)c1 [Compound 130, 5,5-dimethyl-1-((2-((tetrahydro-2H-pyran-4-yl)amino)pyridin-4-yl)methyl)-3-(4-(1-(trifluoromethyl)cyclobutyl)phenyl) imidazolidine-2,4-dione] | ≥ 6.30 | ≥ 6.30
21 | CC1(C)COCCC1Nc1cc(CN2C(=O)N(c3ccc(C4(C(F)(F)F)CC4)cc3)C(=O)C2(C)C)ccn1 (centres unmarked) [Compound 132, 1-((2-((3,3-dimethyltetrahydro-2H-pyran-4-yl)amino)pyridin-4-yl)methyl)-5,5-dimethyl-3-(4-(1-(trifluoromethyl)cyclopropyl)phenyl) imidazolidine-2,4-dione] | 5.70 to 6.30 | 5.00 to 5.70
22 | CC1(C)C(=O)N(c2ccc(C3(C(F)(F)F)CC3)cc2)C(=O)N1Cc1ccnc(NC2CCS(=O)(=O)CC2)c1 [Compound 133, 1-((2-((1,1-dioxidotetrahydro-2H-thiopyran-4-yl)amino)pyridin-4-yl)methyl)-5,5-dimethyl-3-(4-(1-(trifluoromethyl)cyclopropyl)phenyl) imidazolidine-2,4-dione] | 5.70 to 6.30 | 5.70 to 6.30
23 | CC(c1ccnc(NC2CCOCC2)c1)N1C(=O)N(c2ccc(C3(C(F)(F)F)CC3)cc2)C(=O)C1(C)C (centres unmarked) [Compound 134, 5,5-dimethyl-1-(1-(2-((tetrahydro-2H-pyran-4-yl)amino)pyridin-4-yl)ethyl)-3-(4-(1-(trifluoromethyl)cyclopropyl)phenyl) imidazolidine-2,4-dione] | 5.70 to 6.30 | ≥ 6.30
24 | CC(c1ccnc(N)c1)N1C(=O)N(c2ccc(C3(C(F)(F)F)CC3)cc2)C(=O)C1(C)C (centres unmarked) [Compound 135, 1-(1-(2-aminopyridin-4-yl)ethyl)-5,5-dimethyl-3-(4-(1-(trifluoromethyl)cyclopropyl)phenyl) imidazolidine-2,4-dione] | ≥ 6.30 | ≥ 6.30
25 | CC1(C)C(=O)N(c2ccc(C3(C(F)(F)F)CC3)cc2)C(=O)N1Cc1ccnc(NC2CCS(=O)(=O)C2)c1 (centres unmarked) [Compound 136, 1-((2-((1,1-dioxidotetrahydrothiophen-3-yl)amino)pyridin-4-yl)methyl)-5,5-dimethyl-3-(4-(1-(trifluoromethyl)cyclopropyl)phenyl) imidazolidine-2,4-dione] | 5.70 to 6.30 | 5.70 to 6.30
